How the values were obtained:
[1] = target: T1, SALDAP (6xHis-SALDAP), salicylaldehyde dehydrogenase (soil metagenome, UniProt Z9QUQ6R3A5); assay: NADH formation at […] nm, substrate inhibition fit; format: biochemical; conditions: 50 µM NAD+, 100 mM Tricine pH 8.0, 25 °C, 1.7% DMSO
T1 construct: full-length ORF, N-terminal 6xHis tag kept (pLATE51), E. coli BL21(DE3); homodimer about 110-115 kDa

[2] = target: T1, SALDAP (6xHis-SALDAP), salicylaldehyde dehydrogenase; assay: differential scanning fluorimetry, SYPRO Orange; format: binding; conditions: 50 mM HEPES pH 7.4
Excerpt: differential scanning fluorimetry, SYPRO Orange on SALDAP (6xHis-SALDAP), salicylaldehyde dehydrogenase

[3] = target: T1, SALDAP (6xHis-SALDAP), salicylaldehyde dehydrogenase; assay: X-ray crystallography, electron density in active site; format: binding; conditions: two conformations; structure first reported in the group's earlier paper

Compound | Tm ^oC ([2]; 2 mM ligand with 1.5 mM NAD+) [°C] | further results
O=Cc1ccccc1 [Benzaldehyde] | – | Ki [1]: 5.02 ± 1.84 µM
COc1cc(C=O)ccc1O [Vanillin] | 69.6 ± 0.4 | –
O=Cc1ccc(O)c(O)c1 [3,4-dihydroxybenzaldehyde] | 71.0 ± 0.0 | –
O=Cc1ccc2ccccc2c1 [2-naphthaldehyde] | – | X-ray crystallography, electron density in active site [3]: electron density as seen in the active site of SALDAP after refinement using 2-naphthaldehyde
O=Cc1ccc(O)cc1 [4-hydroxybenzaldehyde] | 70.0 ± 0.3 | –
NC(=O)c1ccc[n+]([C@@H]2O[C@H](COP(=O)(O)OP(=O)(O)OC[C@H]3O[C@@H](n4cnc5c(N)ncnc54)[C@H](O)[C@@H]3O)[C@@H](O)[C@H]2O)c1 [NAD+] | – | Tm ^oC ([2]; 1.5 mM NAD+ alone): 68.7 ± 0.3 °C

Reference: PMC12718228 (Applied Biochemistry and Biotechnology, 2025)
